One assay concerns Picrophilus HPPD. As to the kind of experiment: HPPD activity assay, wildtype enzyme. Format: biochemical, Picrophilus torridus. To be noted: Table 12, normalized to Arabidopsis HPPD. As to the method: (§1) HPPD produces homogentisic acid and CO2 from 4-hydroxyphenylpyruvate (4-HPP) and O2. The activity assay for HPPD is based on the analysis of homogentisic acid by reversed phase HPLC.
(§2) The assay mixture can contain 150 mM potassium phosphate buffer pH 7.0, 50 mM L-ascorbic acid, 100 μM Catalase (Sigma-Aldrich), 1 μM FeSO4 and 0.2 units of purified HPPD enzyme in a total volume of 505 μl. 1 unit is defined as the amount of enzyme that is required to produce 1 nmol of HGA per minute at 20° C.
(§3) After a preincubation of 30 min the reaction is started by adding 4-HPP to a final concentration of 0.05 mM. The reaction is allowed to proceed for 45 min at room temperature. The reaction is stopped by the addition of 50 μl of 4.5 M phosphoric acid. The sample is filtered using a […] pore size PVDF filtration device.
(§4) 5 μl of the cleared sample is analyzed on an UPLC HSS T3 column (particle size 1.8 μm, dimensions 2.1×50 mm; Waters) by isocratic elution using 90% 20 mM NaH2PO4 pH 2.2, 10% methanol (v/v).
(§5) HGA is detected electrochemically at 750 mV (mode: DC; polarity: positive) and quantified by integrating peak areas (Empower software; Waters).
Inhibitors are dissolved in DMSO (dimethylsulfoxide) to a concentration of 0.5 mM. From this stock solution serial five-fold dilutions are prepared in DMSO, which are used in the assay. […] IC50 values are calculated using non-linear regression. […]

Assay [1] addresses T1, Arabidopsis HPPD (SEQ ID: 53) M335H, P336A (Arabidopsis thaliana, UniProt P93836, M335H/P336A).
T1 construct: PCR-based site directed mutagenesis of pEXP5-NT/TOPO®-AtHPPD; His6 (N); made in house; host or cells: E. coli BL21 (DE3)
As to the kind of experiment: HPPD activity assay, mutant enzyme. It counts as biochemical. To be noted: Table 15, normalized to Arabidopsis wild-type. The procedure: as §1, §2, §3, §4, §5
(§6) Inhibitors are dissolved in DMSO (dimethylsulfoxide) to a concentration of 0.5 mM. From this stock solution serial five-fold dilutions are prepared in DMSO, which are used in the assay. The respective inhibitor solution accounts for 1% of the assay volume. […] Activities are normalized by setting the uninhibited enzyme activity to 100%. IC50 values are calculated using non-linear regression.
(§7) Purified, mutant HPPD enzymes are obtained by the methods described above. Dose response and kinetic measurements are carried out using the described HPPD activity assay. Apparent michaelis constants (Km) and maximal reaction velocities (Vmax) are calculated by non-linear regression with the software GraphPad Prism 5 (GraphPad Software, La Jolla, USA) using a substrate inhibition model. […] Weighted means (by standard error) of Km and IC50 values are calculated from at least three independent experiments.
(§8) Field performance of the optimized HPPD enzyme, which is used as a herbicide tolerance trait may depend not only on its lack of sensitivity towards HPPD inhibiting herbicides but also on its activity. To assess the potential performance of a herbicide tolerance trait a tolerance index (TI) is calculated using the following formula: […]
(§9) Easy comparison and ranking of each trait is enabled by normalizing tolerance indexes on Arabidopsis or Hordeum wild-type HPPD.

In assay [2] the target is T2, Hordeum HPPD (SEQ ID: 2) F404L (Hordeum vulgare, UniProt O48604, A164G/F404L/R146V/R147D/R148G).
T2 construct: His tag (N); made in house; host or cells: E. coli BL21 (DE3)
T2 sequence (O48604 whole entry R146V/R147D/R148G/A164G/F404L): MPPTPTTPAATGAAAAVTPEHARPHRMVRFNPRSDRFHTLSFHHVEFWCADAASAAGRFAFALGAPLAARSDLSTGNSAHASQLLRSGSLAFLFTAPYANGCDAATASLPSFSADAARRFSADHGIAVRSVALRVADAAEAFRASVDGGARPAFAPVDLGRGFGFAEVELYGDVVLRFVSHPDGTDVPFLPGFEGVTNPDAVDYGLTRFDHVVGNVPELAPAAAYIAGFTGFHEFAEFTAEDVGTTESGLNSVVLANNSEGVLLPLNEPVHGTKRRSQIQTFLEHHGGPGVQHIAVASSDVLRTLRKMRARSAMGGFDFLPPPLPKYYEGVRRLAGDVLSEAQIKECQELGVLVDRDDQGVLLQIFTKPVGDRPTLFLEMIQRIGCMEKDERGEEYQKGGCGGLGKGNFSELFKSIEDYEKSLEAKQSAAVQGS
Kind of assay: HPPD activity assay, mutant enzyme. Format: biochemical. Particulars: Table 16, normalized to Hordeum wild-type. As to the method: as §1, §2, §3, §4, §5, §6, §7, §8, §9

The target of assay [3] is T3, Hordeum HPPD (SEQ ID: 2) I416V (Hordeum vulgare, UniProt O48604, A164G/I416V/R146V/R147D/R148G).
T3 construct: His tag (N); made in house; host or cells: E. coli BL21 (DE3)
T3 sequence (O48604 whole entry R146V/R147D/R148G/A164G/I416V): as the sequence (O48604 whole entry R146V/R147D/R148G/A164G/F404L) above, with L404F, I416V counted along it
Kind of assay: HPPD activity assay, mutant enzyme. Format: biochemical. To be noted: Table 16, normalized to Hordeum wild-type. The procedure: as §1, §2, §3, §4, §5, §6, §7, §8, §9

Assay [4] addresses T4, Hordeum HPPD (SEQ ID: 2) L250M (Hordeum vulgare, UniProt O48604, A164G/L250M/R146V/R147D/R148G).
T4 construct: His tag (N); made in house; host or cells: E. coli BL21 (DE3)
Kind of assay: HPPD activity assay, mutant enzyme. It counts as biochemical. To be noted: Table 16, normalized to Hordeum wild-type. As to the method: as §1, §2, §3, §4, §5, §6, §7, §8, §9

Assay [5] deals with T5, Hordeum HPPD (SEQ ID: 2) R309K (Hordeum vulgare, UniProt O48604, A164G/R146V/R147D/R148G/R309K).
T5 construct: His tag (N); made in house; host or cells: E. coli BL21 (DE3)
T5 sequence (O48604 whole entry R146V/R147D/R148G/A164G/R309K): as the sequence (O48604 whole entry R146V/R147D/R148G/A164G/F404L) above, with R309K, L404F counted along it
As to the kind of experiment: HPPD activity assay, mutant enzyme. Particulars: Table 16, normalized to Hordeum wild-type. Format: biochemical. The procedure:
as §1, §2, §3, §4, §5, §6, §7, §8, §9

Another assay concerns the target T6, HvHPPD G407C (SEQ ID: 2) (Hordeum vulgare, UniProt O48604, A164G/G407C/R146V/R147D/R148G).
T6 construct: His tag (N); made in house; host or cells: E. coli BL21 (DE3)
As to the kind of experiment: HPPD activity assay, mutant enzyme. Format: biochemical. Particulars: Table 16, normalized to Hordeum wild-type. The procedure:
as §1, §2, §3, §4, §5, §6, §7, §8, §9

For a further assay, the target named is T7, HvHPPD L320H (SEQ ID: 2) (Hordeum vulgare, UniProt O48604, A164G/L320H/R146V/R147D/R148G).
T7 construct: His tag (N); made in house; host or cells: E. coli BL21 (DE3)
T7 sequence (O48604 whole entry R146V/R147D/R148G/A164G/L320H): as the sequence (O48604 whole entry R146V/R147D/R148G/A164G/F404L) above, with L320H, L404F counted along it
As to the kind of experiment: HPPD activity assay, mutant enzyme. It counts as biochemical. Particulars: Table 16, normalized to Hordeum wild-type. The procedure: as §1, §2, §3, §4, §5, §6, §7, §8, §9

Assay [6] has as its target T8, HvHPPD L320H, P321A (SEQ ID: 2) (Hordeum vulgare, UniProt O48604, L320H/P321A).
T8 construct: His tag (N); made in house; host or cells: E. coli BL21 (DE3)
As to the kind of experiment: HPPD activity assay, mutant enzyme. It counts as biochemical. Particulars: Table 16, normalized to Hordeum wild-type. As to the method: as §1, §2, §3, §4, §5, §6, §7, §8, §9

A further assay concerns the target T9, HvHPPD L320Q (SEQ ID: 2) (Hordeum vulgare, UniProt O48604, A164G/L320Q/R146V/R147D/R148G).
T9 construct: His tag (N); made in house; host or cells: E. coli BL21 (DE3)
Kind of assay: HPPD activity assay, mutant enzyme. Format: biochemical. Particulars: Table 16, normalized to Hordeum wild-type. As to the method: as §1, §2, §3, §4, §5, §6, §7, §8, §9

The target of assay [7] is T10, HvHPPD L353M, P321R, L320Q (SEQ ID: 2) (Hordeum vulgare, UniProt O48604, L320Q/L353M/P321R).
T10 construct: His tag (N); made in house; host or cells: E. coli BL21 (DE3)
T10 sequence (O48604 whole entry R146V/R147D/R148G/A164G/L320Q/P321R/L353M): as the sequence (O48604 whole entry R146V/R147D/R148G/A164G/F404L) above, with L320Q, P321R, L353M, L404F counted along it
Kind of assay: HPPD activity assay, mutant enzyme. Format: biochemical. Particulars: Table 16, normalized to Hordeum wild-type. As to the method:
as §1, §2, §3, §4, §5, §6, §7, §8, §9

T4 sequence (O48604 whole entry R146V/R147D/R148G/A164G/L250M): as the sequence (O48604 whole entry R146V/R147D/R148G/A164G/F404L) above, with L250M, L404F counted along it
T6 sequence (O48604 whole entry R146V/R147D/R148G/A164G/G407C): as the sequence (O48604 whole entry R146V/R147D/R148G/A164G/F404L) above, with L404F, G407C counted along it
T9 sequence (O48604 whole entry R146V/R147D/R148G/A164G/L320Q): as the sequence (O48604 whole entry R146V/R147D/R148G/A164G/F404L) above, with L320Q, L404F counted along it
T8 sequence (O48604 whole entry R146V/R147D/R148G/A164G/L320H/P321A): as the sequence (O48604 whole entry R146V/R147D/R148G/A164G/F404L) above, with L320H, P321A, L404F counted along it
T1 sequence (P93836 whole entry M335H/P336A): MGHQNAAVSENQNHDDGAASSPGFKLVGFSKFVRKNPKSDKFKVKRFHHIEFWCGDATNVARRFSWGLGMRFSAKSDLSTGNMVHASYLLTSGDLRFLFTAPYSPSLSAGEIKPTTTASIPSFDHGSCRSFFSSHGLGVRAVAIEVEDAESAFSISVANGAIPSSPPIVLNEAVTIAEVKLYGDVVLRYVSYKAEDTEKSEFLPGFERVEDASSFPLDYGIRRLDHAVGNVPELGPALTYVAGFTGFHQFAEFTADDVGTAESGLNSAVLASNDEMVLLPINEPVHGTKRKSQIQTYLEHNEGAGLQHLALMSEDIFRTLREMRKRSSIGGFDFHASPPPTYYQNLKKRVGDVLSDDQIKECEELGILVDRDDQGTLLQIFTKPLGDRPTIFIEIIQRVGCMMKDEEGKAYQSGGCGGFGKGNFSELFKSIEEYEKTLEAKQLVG

As for `Cc1nonc1NC(=O)c1ccc(S(C)(=O)=O)c(S(C)(=O)=O)c1C` [Inhibitor 1, 2-methyl-N-(4-methyl-1,2,5-oxadiazol-3-yl)-3,4-bis(methylsulfonyl)benzamide], the “Normalized tolerance index TI Inhibitor 1” value in the assay on Picrophilus HPPD is 5.4; in assay [1], 2.4; in assay [2], 4.6; in [3], 1.7; in assay [4], 2.1; in assay [5], 1.6. The “Normalized tolerance index TI Inhibitor 1” value is 5 at HvHPPD G407C (SEQ ID: 2); 4.4 at HvHPPD L320H (SEQ ID: 2); 5.3 in assay [6]; 1.1 on HvHPPD L320Q (SEQ ID: 2); 12.6 in assay [7].

These data come from US10829778B2, “Plants having increased tolerance to herbicides” (BASF SE, priority 2013, dated 2020).
